Experimental data reported in ChEMBL document CHEMBL3507680, “University of Dundee, Gates Library screen for HepG2 cell viability”.

Experiment: Human HepG2 cell viability assay in 384 well format
Assay type: toxicity, cell-based
Parameters: dose 125 nL, time 70.5 hour; concentration not given beside the values
Settings: HepG2 cells, read-out: Inhibition

Compound	cytotoxicity at 70.5 h
CCN(Cc1ccco1)C(=O)Nc1cc(C(F)(F)F)c[nH]c1=O	11.4%
CS(=O)(=O)N1CCc2[nH]cnc2C12CCN(C(=O)c1cccnc1)CC2	-0.221%
COc1ccnc(N2CCN(C(=O)Cc3ccc(C)s3)CC2)n1	-5.58%
CO[C@@H]1CCN(S(=O)(=O)c2cccs2)[C@H]1Cc1cccnc1	-4.13%
CCN(CC1CCOC1)C(=O)c1ccc(N2CCOCC2)c(F)c1 (centres undefined)	-6.24%
NC(=O)C1CN(C(=O)Nc2ccccc2-c2cccs2)CCO1 (centres undefined)	-1.53%
CCc1nnsc1C(=O)NCCC1CCCN(C(C)C)C1 (centres undefined)	24.8%
CCc1ncnc(N2CCOCC2CCO)c1F (centres undefined)	-2.27%
Cc1ccc(-c2n[nH]cc2CNCC2CCN(CC(F)(F)F)C2)o1 (centres undefined)	-1.74%
CS(=O)(=O)Nc1cnn(Cc2cccc(Cl)c2)c1	-7.33%
CCOCCN1CCN(Cc2nnc(-c3occc3C)o2)CC1	9.82%
COCCCC1CCCCN1C(=O)c1ccc(SCCO)cc1 (centres undefined)	6.41%
CN(C)C(CNC(=O)NCCOc1ccccc1)c1ccco1 (centres undefined)	13%
CCC(NC(=O)c1nn(C)cc1C(=O)O)c1ccccc1 (centres undefined)	-15.2%
CCOc1ccnc(N2CCN(C(=O)C(C)(C)C#N)CC2)n1	-12.5%
CC(Cn1ccnc1)NC(=O)C1(c2cccc(Cl)c2)CC1 (centres undefined)	-1.52%
O=C(N1CCCO1)[C@@]12CCO[C@@H]1CCN(C1CCCCC1)C2	14%
CC(C)NC(=O)[C@H]1C[C@@H]2CN(C(=O)NC(C)C)C[C@H]1O2	-10.3%
Cn1ccc(C(=O)NCc2ccc(N3CCCC3)nc2)cc1=O	-5.51%
CC(C)c1cc(NC(=O)CN2CCCC(Cn3cncn3)C2)on1 (centres undefined)	17.9%
Cc1ccc(C(=O)N2CCC3(CC2)CCN(Cc2ccccn2)C3=O)o1	26.4%
CCC(=O)N1CCC(c2nc(N3CCOCC3)ncc2S(C)(=O)=O)CC1	-9.6%
CCN(CC)S(=O)(=O)c1ccc(NC(=O)C(C)(C)C)cc1	-4.91%

Compound	cytotoxicity at 70.5 h
CN(Cc1cnn(C)c1)C(=O)NCC1CCS(=O)(=O)C1 (centres undefined)	-4.43%
Cc1cc(NCCS(C)(=O)=O)nc2ccccc12	-1.98%
COCCCC(=O)Nc1cc(Cl)c(Cl)cn1	24.5%
O=C(CCCc1ccccn1)N1CCC(n2cccc2)CC1	-1.32%
COCCCC(=O)NS(=O)(=O)c1ccc2c(c1)OCCCO2	-8.6%
C=C(C)COc1ccccc1C(=O)NCCCc1nnn[nH]1	-13%
O=C(Cn1cccc(S(=O)(=O)N2CCCC2)c1=O)c1ccccc1Cl	-8.77%
Cc1noc(C(C)Nc2ccc3oc(C(C)C)nc3c2)n1 (centres undefined)	1.64%
N#Cc1cccnc1OC1CCNCC1	37.8%
CC(C)Oc1cccc(CNC(=O)NC2(CO)CCCC2)c1	-11.2%
Cn1nnnc1SCC(=O)N1CCN(C(=O)C2CC2c2cccs2)CC1 (centres undefined)	1.49%
CNC(=O)C1CN(C(=O)c2ccncc2)CCN(S(C)(=O)=O)C1 (centres undefined)	22.7%
CCn1nc(C)c(CN2CCC(c3ccc(C(=O)O)cc3)C2)c1C (centres undefined)	-2.74%
CCn1ccnc1C1CCN(Cc2cccc(C)n2)CC1	2.62%
Cc1cc(C)n(CC2CN(Cc3nnc(C)o3)CCO2)n1 (centres undefined)	-3.59%
COc1ccc(-c2cn(CCn3c(C)cc(C)nc3=O)nn2)cn1	-9.73%
CCc1cc(=O)[nH]c2nnc(SCC(=O)NC(C)C)n12	17.6%
O=C(NC1CCN(C2CC2)C1)c1cn(-c2ccc(F)cc2)nn1 (centres undefined)	-6.52%
c1cnc(N2C[C@@H]3COC[C@]3(COCC3CCCC3)C2)nc1	-14.8%
Cn1cc(NC(=O)Cc2ccccc2Br)cc1C(N)=O	-2.69%
Cc1oc(-c2ccc(F)cc2F)nc1CN1C[C@@H](C)O[C@@H](C)C1	15.1%
CN(C)C(=O)COCC1CN(CC2CCOCC2)Cc2ncn(C)c21 (centres undefined)	-1.41%
CC(C)c1noc(-c2ccc(-n3cnc(C(=O)O)c3)nc2)n1	-15.8%

Compound	cytotoxicity at 70.5 h
CCn1cc(S(=O)(=O)Nc2cccnc2-n2cccn2)nc1C	-2.93%
CC(NC(=O)N1CCS(=O)(=O)CC1)c1ccc(F)cc1Cl (centres undefined)	-1.2%
Cc1ccccc1N1CCCN(C(=O)CCc2cccnc2)CC1	0.239%
CSc1ncnc(NCc2ccccc2F)c1C#N	23.1%
Cc1ccc(-c2nnc(CN3CCOC(Cn4cncn4)C3)o2)cc1 (centres undefined)	-5.3%
CC1=C(C(=O)NCCc2n[nH]c3c2CCCC3)C(C)NC(=O)N1 (centres undefined)	14.6%
Cc1nnn2c1COC(CNCc1ccncc1)C2 (centres undefined)	-15.7%
CCc1nnc(CN(C)c2cc(C)nc3c(C)c(C)nn23)o1	-2.11%
COCc1cn(C[C@H]2CC3CCN2C[C@@H]3C(=O)Nc2ccccc2)nn1 (some centres undefined)	-6.64%
O=S(=O)(c1cccs1)N1CC[C@@H](O)[C@@H]1Cc1ccncc1	18%
Cc1cccc(CO[C@@H]2CC[C@H]3[C@H]2OCCN3Cc2cc(C)on2)n1	-0.405%
OCCCNC1CCc2cc3c(cc21)OCCO3 (centres undefined)	-4.1%
c1cncc(CN2CCC(c3ccnc4nccn34)C2)c1 (centres undefined)	-1.1%
Cn1cc(C(O)CNC(=O)c2cc(Br)ccc2Cl)cn1 (centres undefined)	-14.2%
CCNC(=O)N[C@H]1C[C@@H](Cc2cc(CN3CCCCC3)on2)C1(C)C	-4.13%
CN1CCN(c2ccc(CO)cc2F)CC1	-8.87%
CCN(CC)c1ccc(CNC(=O)c2cccc(C)n2)cn1	11.5%
OCCC1CN(c2nc(-c3cccnc3)nc3c2CCNCC3)CCO1 (centres undefined)	-1.49%
CN1[C@H]2CC[C@@H]1CN(C(=O)c1sccc1S(N)(=O)=O)CC2	-4.92%
Cc1cccc(CN2C(=O)CC[C@@H]3[C@H]2CCN3Cc2cccnc2)n1	-0.831%
Cc1oc(C(=O)O)cc1S(=O)(=O)Nc1ccc(Br)cc1Cl	-16.9%
CN1CCO[C@H]2CN(C(=O)c3ccoc3)C[C@H]21	-7.03%
Cc1noc(C)c1-c1cncc(C2CCCN2Cc2ncccc2F)n1 (centres undefined)	-6.52%

Compound	cytotoxicity at 70.5 h
CCn1nnc2c1C(COCCN(C)C)CN(S(C)(=O)=O)C2 (centres undefined)	2.19%
Cc1ccnc(OC[C@]23COC[C@H]2CN(C(=O)c2ncccn2)C3)n1	21.2%
CC(=O)N1CCC2(CC1)CN(C(=O)c1cccc3[nH]ccc13)C2	-11.6%
Cc1cc(C)c2[nH]c(C(=O)NCCN3CCCC3=O)c(C)c2c1	23.6%
c1cncc(OCCNC2Cc3ccccc3C2)c1	-14.1%
Cc1ncc(C(=O)N2CCOC(C(=O)N3CCCCCC3)C2)c(C)n1 (centres undefined)	1.17%
COCC1CN(Cc2sccc2C)Cc2nnn(CC3CC3)c21 (centres undefined)	-4.06%
CC(C)CCn1[nH]c(CNc2ccc(Cl)cc2)nc1=O	0.442%
CC(=O)NCc1ccc(S(=O)(=O)NC(=O)c2ccc3c(c2)COC3)s1	0.101%
Cc1ccc(C(=O)NC(C)CN2CCCC2=O)c(=O)[nH]1 (centres undefined)	-5.25%
CC(C)[C@H](NC(=O)N1CCN(c2ccc(Cl)cc2)CC1)C(=O)NC1CC1	-17%
Oc1ccc(Br)c(CNc2cccc(-c3nnc[nH]3)c2)c1	1.61%
Brc1ccc(C2(NCc3noc(C4CC4)n3)CCC2)cc1	2.53%
Cc1noc(C)c1C(=O)N1CCC(c2cc3cnccc3[nH]2)CC1	-5.78%
COCC1CN(C(=O)CC2Cc3ccccc3C2)Cc2c1cnn2C (centres undefined)	-5.66%
O=C(Cn1ccc2ncccc2c1=O)N1CCSCC1	29.2%
O=C1C(NCc2nnc3n2CCCC3)CCN1c1ccccc1Cl (centres undefined)	9.28%
Cc1cccc(OCCCNC(=O)NC(C)c2nncn2C)c1 (centres undefined)	-6.42%
COc1ccccc1OC1CCN(C(=O)c2cnc(C)cc2C)CC1	-5%
Cc1cnn(C2CCCN(C(=O)c3ccnc(-n4ccnc4)c3)C2)c1 (centres undefined)	-0.996%
Cc1nc(C2NC3(CCCC3)C(=O)N2CC2CC2)cs1 (centres undefined)	-5.61%
Cc1ccc2c(c1)c(CNC(=O)C1CCN(C(C)C)CC1)nn2C	-14.4%
c1nc2n(c1CN1CCOCC1)CCN(C1CCOC1)CC2 (centres undefined)	7.7%

Compound	cytotoxicity at 70.5 h
O=C(c1ccnn1COc1ccc(Cl)cc1)N1CCSCC1	-11%
CCCc1noc(CCC(=O)NC(C)c2nnc3n2CCCCC3)n1 (centres undefined)	-9.55%
COCC(C)N(C)C(=O)NC1CCN(S(C)(=O)=O)CC1 (centres undefined)	-6.45%
CCn1c(C(=O)N2CCN(CC(C)O)CC2)cc2ccccc21 (centres undefined)	21.6%
CC(=O)N1CCC(c2nn(C)c3nccnc23)C1 (centres undefined)	-5.3%
COc1ccc2[nH]nc(CN3CCN(Cc4cccc(F)c4)CC3)c2c1	4.06%
CCOCC1CN(S(C)(=O)=O)Cc2ncn(CC3CC3)c21 (centres undefined)	3.76%
Cc1nc(C)n(CC2CCCN2Cc2coc(-c3cccs3)n2)n1 (centres undefined)	-115%
CSCc1noc(CNC(=O)C2CCN(C(=O)C3CCCC3)CC2)n1	-10.6%
O=C(CCn1cccn1)N1CCC(c2nnc(-c3ccccn3)o2)CC1	3.01%
O=C1C(CS(=O)(=O)Nc2ccc(Cl)cc2)=NC(=O)n2cccc21	-26.2%
CCS(=O)(=O)NC[C@]12COC[C@H]1CN(Cc1cccnc1)C2	7.34%
CCOc1ccccc1OC1CCN(C(=O)c2cnns2)CC1	-3.73%
COc1ccc(C2(C(=O)NC3CCc4nccn4C3)CCCC2)cc1 (centres undefined)	-3%
Cc1ccc(S(=O)(=O)NCc2[nH]ncc2Br)cc1C	-8.92%
CN(C)C(=O)C1OC2(CCN(c3ncc(F)cn3)CC2)c2ccccc21 (centres undefined)	3.5%
CC(C)(C)c1cc(CN2CCOC(CN)C2)n[nH]1 (centres undefined)	2.01%
O=C(c1ncc(F)cc1F)N1CCC(c2ncc[nH]2)CC1	-14%
COc1cccc(-c2n[nH]cc2CNC2CCC(O)CC2)c1 (centres undefined)	-15.9%
COc1ccc2c(C(=O)N(C)C)cc(-c3cnc(N)nc3)nc2c1	-3.44%
COCCN(Cc1ccc(F)cc1Cl)C(=O)c1cnn(C)c1C	7.76%
Cc1cccc(-c2ccc(C(=O)N3CCN(C(C)C)CC3)c(=O)[nH]2)c1	-2.78%
